From patent US20130040882A1, “USE OF FIBROBLAST GROWTH FACTOR FRAGMENTS” (NOVARTIS AG, priority 2003, published 2013)

System: uterine gene expression
Test: Gene expression profiling (HGU133A) in the uterus of ovariectomized monkeys treated with estradiol, tamoxifen or raloxifene
Format: in vivo, cynomolgus monkeys (Macaca fascicularis)

What does the source list for `CC/C(=C(\c1ccccc1)c1ccc(OCCN(C)C)cc1)c1ccccc1` [tamoxifen]?
Uterine expression increase: Collagen type 1 alpha 2 (compared with OVX controls): 6.1 fold; Uterine expression increase: collagen type 1 alpha1 (compared with OVX controls): 3.5 fold; Uterine expression increase: collagen type III alpha 1 (compared with OVX controls): 3.4 fold; Uterine expression increase: collagen type IV alpha 1 (compared with OVX controls): 3.2 fold; Uterine expression increase: insulin-like GF binding protein 2 (36 kDa) (compared with OVX controls): 2.7 fold; Uterine expression changes: IGFBP 5, latent TGF beta binding protein 1, cysteine-rich angiogenic inducer 61 (cynomolgus monkey, in vivo): only modest changes; Uterine expression of the remaining signal transduction genes examined (tamoxifen: except for LDL receptor adaptor protein): downregulated; Fold change relative to OVX: ATPase, H+ transporting, lysosomal 38 kda, V0 subunit d isoform 1 (uterus, OVX monkeys): 1.2 fold; Fold change relative to OVX: ATPase, Na+/K+ transporting, beta 3 polypeptide (uterus, OVX monkeys): 2.1 fold; Fold change relative to OVX: Biglycan (uterus, OVX monkeys): 2.0 fold; Fold change relative to OVX: CDC28 protein kinase regulatory subunit 2 (uterus, OVX monkeys): 3.1 fold; Fold change relative to OVX: Cadherin 11, type 2, OB-cadherin (osteoblast) (uterus, OVX monkeys): 3.2 fold; Fold change relative to OVX: Calcium channel, voltage-dependent, beta 2 subunit (uterus, OVX monkeys): 0.5 fold; Fold change relative to OVX: Catenin (cadherin-associated protein), alpha-like 1 (uterus, OVX monkeys): 0.7 fold; Fold change relative to OVX: Chitinase 3-like 1 (cartilage glycoprotein-39) (uterus, OVX monkeys): 1.7 fold; Fold change relative to OVX: Chloride intracellular channel 4 (uterus, OVX monkeys): 1.9 fold; Fold change relative to OVX: Chondroitin sulfate proteoglycan 2 (versican) (uterus, OVX monkeys): 2.9 fold; Fold change relative to OVX: Collagen, type I, alpha 1 (uterus, OVX monkeys): 3.5 fold; Fold change relative to OVX: Collagen, type IV, alpha 2 (uterus, OVX monkeys): 2.2 fold; Fold change relative to OVX: Collagen, type V, alpha 1 (uterus, OVX monkeys): 1.3 fold; Fold change relative to OVX: Collagen, type VI, alpha 3 (uterus, OVX monkeys): 2.0 fold; Fold change relative to OVX: Collagen, type VIII, alpha 2 (uterus, OVX monkeys): 1.8 fold; Fold change relative to OVX: Cyclin D1 (PRAD1: parathyroid adenomatosis 1) (uterus, OVX monkeys): 1.8 fold; Fold change relative to OVX: Cysteine-rich, angiogenic inducer, 61 (uterus, OVX monkeys): 1.6 fold; Fold change relative to OVX: Cytochrome c oxidase subunit via polypeptide 1 (uterus, OVX monkeys): 1.3 fold; Fold change relative to OVX: Cytochrome c oxidase subunit viia polypeptide 2 (liver) (uterus, OVX monkeys): 1.6 fold; Fold change relative to OVX: Dermatopontin (uterus, OVX monkeys): 1.8 fold; Fold change relative to OVX: Dishevelled associated activator of morphogenesis 1 (uterus, OVX monkeys): 1.2 fold; Fold change relative to OVX: Fibroblast growth factor 2 (basic) (uterus, OVX monkeys): 2.0 fold; Fold change relative to OVX: Fibulin 1 (uterus, OVX monkeys): 1.9 fold; Fold change relative to OVX: Four and a half LIM domains 2 (uterus, OVX monkeys): 1.7 fold; Fold change relative to OVX: G1 to S phase transition 1 (uterus, OVX monkeys): 1.6 fold; Fold change relative to OVX: Growth associated protein 43 (uterus, OVX monkeys): 1.9 fold; Fold change relative to OVX: H2A histone family, member Y (uterus, OVX monkeys): 1.7 fold; Fold change relative to OVX: Heparan sulfate proteoglycan 2 (perlecan) (uterus, OVX monkeys): 2.2 fold; Fold change relative to OVX: Histone H2A.F/Z variant (uterus, OVX monkeys): 1.5 fold; Fold change relative to OVX: Insulin-like growth factor binding protein 2, 36 kda (uterus, OVX monkeys): 2.7 fold; Fold change relative to OVX: Insulin-like growth factor binding protein 5 (uterus, OVX monkeys): 2.0 fold; Fold change relative to OVX: Integrin, beta 5 (uterus, OVX monkeys): 1.5 fold; Fold change relative to OVX: Intercrine-alpha, mrna sequence (uterus, OVX monkeys): 1.5 fold; Fold change relative to OVX: LDL receptor adaptor protein (uterus, OVX monkeys): 1.2 fold; Fold change relative to OVX: LIM and senescent cell antigen-like domains 1 (uterus, OVX monkeys): 2.9 fold; Fold change relative to OVX: Laminin, beta 1 (uterus, OVX monkeys): 1.4 fold; Fold change relative to OVX: Latent transforming growth factor beta binding protein 1 (uterus, OVX monkeys): 2.6 fold; Fold change relative to OVX: Matrix metalloproteinase 19 (uterus, OVX monkeys): 1.6 fold; Fold change relative to OVX: Mitogen-activated protein kinase kinase kinase kinase 4 (uterus, OVX monkeys): 0.6 fold; Fold change relative to OVX: Nidogen (enactin) (uterus, OVX monkeys): 1.9 fold; Fold change relative to OVX: Osteoglycin (osteoinductive factor, mimecan) (uterus, OVX monkeys): 1.7 fold; Fold change relative to OVX: Peroxiredoxin 1 (uterus, OVX monkeys): 1.7 fold; Fold change relative to OVX: Phosphatase and tensin homolog (mutated in multiple advanced cancers 1) (uterus, OVX monkeys): 1.6 fold; Fold change relative to OVX: Phospholipid transfer protein (uterus, OVX monkeys): 1.4 fold; Fold change relative to OVX: Pituitary tumour-transforming 1 interacting protein (uterus, OVX monkeys): 1.9 fold; Fold change relative to OVX: Procollagen C-endopeptidase enhancer (uterus, OVX monkeys): 2.3 fold; Fold change relative to OVX: Procollagen-proline, 2-oxoglutarate 4-dioxygenase (proline 4-hydroxylase), alpha polypeptide II (uterus, OVX monkeys): 1.6 fold; Fold change relative to OVX: Progesterone receptor (uterus, OVX monkeys): 4.5 fold; Fold change relative to OVX: Protein tyrosine kinase 9 (uterus, OVX monkeys): 1.7 fold; Fold change relative to OVX: SET domain, bifurcated 1 (uterus, OVX monkeys): 1.9 fold; Fold change relative to OVX: SPARC-like 1 (mast9, hevin) (uterus, OVX monkeys): 1.3 fold; Fold change relative to OVX: Secreted frizzled-related protein 1 (uterus, OVX monkeys): 2.2 fold; Fold change relative to OVX: Secreted frizzled-related protein 4 (uterus, OVX monkeys): 2.9 fold; Fold change relative to OVX: Secreted protein, acidic, cysteine-rich (osteonectin) (uterus, OVX monkeys): 2.2 fold; Fold change relative to OVX: Serine (or cysteine) proteinase inhibitor, clade H (heat shock protein 47), member 1, (collagen binding protein 1) (uterus, OVX monkeys): 2.2 fold; Fold change relative to OVX: Solute carrier family 22 (organic cation transporter), member 1-like (uterus, OVX monkeys): 1.8 fold; Fold change relative to OVX: Solute carrier family 25 (mitochondrial carrier; adenine nucleotide translocator), member 5 (uterus, OVX monkeys): 2.2 fold; Fold change relative to OVX: Stem cell growth factor; lymphocyte secreted C-type lectin (uterus, OVX monkeys): 1.4 fold; Fold change relative to OVX: Tenascin C (hexabrachion) (uterus, OVX monkeys): 3.8 fold; Fold change relative to OVX: Testis Enhanced Gene Transcript (Bax Inhibitor 1) (uterus, OVX monkeys): 1.5 fold; Fold change relative to OVX: Thioredoxin interacting protein (uterus, OVX monkeys): 0.6 fold; Fold change relative to OVX: Transforming growth factor, beta-induced, 68 kda (uterus, OVX monkeys): 2.2 fold; Fold change relative to OVX: Ubiquinol-cytochrome c reductase, Rieske iron-sulfur polypeptide 1 (uterus, OVX monkeys): 1.4 fold; Fold change relative to OVX: Wingless-type MMTV integration site family, member 2B (uterus, OVX monkeys): 1.9 fold; Fold change relative to OVX: Wingless-type MMTV integration site family, member 16 (uterus, OVX monkeys): 1.1 fold; Fold change relative to SHAM control: ATPase, H+ transporting, lysosomal 38 kda, V0 subunit d isoform 1 (uterus, OVX monkeys): 1.0 fold; Fold change relative to SHAM control: ATPase, Na+/K+ transporting, beta 3 polypeptide (uterus, OVX monkeys): 1.2 fold; Fold change relative to SHAM control: Biglycan (uterus, OVX monkeys): 0.7 fold; Fold change relative to SHAM control: CDC28 protein kinase regulatory subunit 2 (uterus, OVX monkeys): 1.9 fold; Fold change relative to SHAM control: Cadherin 11, type 2, OB-cadherin (osteoblast) (uterus, OVX monkeys): 1.9 fold; Fold change relative to SHAM control: Calcium channel, voltage-dependent, beta 2 subunit (uterus, OVX monkeys): 0.9 fold; Fold change relative to SHAM control: Catenin (cadherin-associated protein), alpha-like 1 (uterus, OVX monkeys): 1.5 fold; Fold change relative to SHAM control: Chitinase 3-like 1 (cartilage glycoprotein-39) (uterus, OVX monkeys): 1.2 fold; Fold change relative to SHAM control: Chloride intracellular channel 4 (uterus, OVX monkeys): 1.1 fold; Fold change relative to SHAM control: Chondroitin sulfate proteoglycan 2 (versican) (uterus, OVX monkeys): 2.1 fold; Fold change relative to SHAM control: Collagen, type I, alpha 1 (uterus, OVX monkeys): 1.3 fold; Fold change relative to SHAM control: Collagen, type IV, alpha 2 (uterus, OVX monkeys): 1.3 fold; Fold change relative to SHAM control: Collagen, type V, alpha 1 (uterus, OVX monkeys): 0.6 fold; Fold change relative to SHAM control: Collagen, type VI, alpha 3 (uterus, OVX monkeys): 1.1 fold; Fold change relative to SHAM control: Collagen, type VIII, alpha 2 (uterus, OVX monkeys): 1.1 fold; Fold change relative to SHAM control: Cyclin D1 (PRAD1: parathyroid adenomatosis 1) (uterus, OVX monkeys): 2.0 fold; Fold change relative to SHAM control: Cysteine-rich, angiogenic inducer, 61 (uterus, OVX monkeys): 0.9 fold; Fold change relative to SHAM control: Cytochrome c oxidase subunit via polypeptide 1 (uterus, OVX monkeys): 1.2 fold; Fold change relative to SHAM control: Cytochrome c oxidase subunit viia polypeptide 2 (liver) (uterus, OVX monkeys): 1.7 fold; Fold change relative to SHAM control: Dermatopontin (uterus, OVX monkeys): 1.0 fold; Fold change relative to SHAM control: Dishevelled associated activator of morphogenesis 1 (uterus, OVX monkeys): 0.8 fold; Fold change relative to SHAM control: Fibroblast growth factor 2 (basic) (uterus, OVX monkeys): 1.0 fold; Fold change relative to SHAM control: Fibulin 1 (uterus, OVX monkeys): 1.1 fold; Fold change relative to SHAM control: Four and a half LIM domains 2 (uterus, OVX monkeys): 1.1 fold; Fold change relative to SHAM control: G1 to S phase transition 1 (uterus, OVX monkeys): 1.3 fold
